# Experimental data as given in article PMC8534029 (Cells, 2021).
# Molecular target: T1, human DOR (T7-tagged, HEK293 cells) (Homo sapiens, UniProt P41143)
# T1 construct: gene OPRD1
# Test: CellKey impedance assay, agonist
# Assay type: cell-based
# Conditions: morphine up to 10^−5 M, no OT, partial agonist, EC50 n.d.
# T1 sequence (P41143 whole entry, looked up): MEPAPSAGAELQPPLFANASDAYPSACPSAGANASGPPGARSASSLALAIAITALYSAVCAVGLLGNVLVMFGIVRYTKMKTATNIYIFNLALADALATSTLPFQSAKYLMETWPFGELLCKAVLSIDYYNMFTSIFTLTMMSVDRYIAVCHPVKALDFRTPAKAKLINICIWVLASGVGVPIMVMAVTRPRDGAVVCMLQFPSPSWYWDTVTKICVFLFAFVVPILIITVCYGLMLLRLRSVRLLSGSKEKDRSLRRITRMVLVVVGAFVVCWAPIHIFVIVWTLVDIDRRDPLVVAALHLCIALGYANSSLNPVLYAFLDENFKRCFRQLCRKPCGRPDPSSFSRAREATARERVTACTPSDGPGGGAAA
smiles,measurement,value
CN1CC[C@]23c4c5ccc(O)c4O[C@H]2[C@@H](O)C=C[C@H]3[C@H]1C5 [morphine],maximum response (% of SNC80 Emax),50.6 ± 7.01%
